# Experiments:
# [1] = test system: panel of DLBCL cell lines; test: MTT assay, whole panel; type: cell-based; details: all eleven DLBCL cell lines, 72 h
# Procedure: (§1) DLBCL cell lines were treated with various concentrations of cerdulatinib for up to 72 h. The metabolic activities of cells were determined with MTT assay according to manufacturer's instruction (Roche Applied Science, Indianapolis, IN) at 72 h time point. IC50 was calculated using the Sigma Plot generated with GraphPad Prism 6 software (GraphPad, La Jolla, CA). Cell growth was measured at every 24 h counting live cells with flow cytometry as previously described. Cells were collected every 24 h and cell viability was determined by the PE Annexin V Apoptosis Detection Kit I (BD Biosciences).
# DLBCL cell lines = test: annexin V / 7-AAD cell viability by flow cytometry; type: cell-based; details: all tested cell lines with the exception of LY18; up to 72 h; concentration- and time-dependent
# Procedure: as §1
# DHL2 cells = test: cell cycle analysis, BrdU incorporation; type: cell-based; details: DHL2, 48 h
# Procedure: (§2) DLBCL cells were treated with various concentrations of cerdulatinib for 48 h. Cells were incubated with 10 μM BrdU (BD Biosciences, San Jose, CA) at 37°C for 2 h, and stained with PE conjugated anti-BrdU antibody (BD Biosciences) according to the supplier's manual. The percentage of cell cycle distribution was analyzed with FlowJo (Tree Star Inc. Ashland, OR).
# DHL6 cells = test: cell cycle analysis, BrdU incorporation; type: cell-based; details: DHL6, 48 h
# Procedure: as §2
# HBL1 cells = test: cell cycle analysis, BrdU incorporation; type: cell-based; details: HBL1, 48 h
# Procedure: as §2
# LY18 cells = test: cell cycle analysis, BrdU incorporation; type: cell-based; details: LY18, 48 h
# Procedure: as §2
# LY3 cells = test: cell cycle analysis, BrdU incorporation; type: cell-based; details: LY3, 48 h
# Procedure: as §2
# [2] = test system: phosphorylation of STAT3 at Y705; test: immunoblotting of p-STAT3 in IL-6/IL-10 stimulated DLBCL cell lines; type: cell-based; details: 3 μM, IL-6 and IL-10 stimulated ABC and GCB cell lines
# Procedure: Immunoblotting were performed as previously described. Antibodies including total STAT3, SYK, PLCγ2, AKT, ERK1/2, PARP, caspase 3, and phosphorylated STAT3 (S727), STAT3 (Y705), SYK (Y525/526), PLCγ2 (Y759), PLCγ2 (Y1217), AKT (S473), ERK1/2 (Y204) and RB (S807/811) were purchased from Cell Signaling (Danvers, MA). Cyclin E antibody was purchased from Santa Cruz Biotechnology (Dallas, TX), and β-actin antibody was purchased from Sigma-Aldrich (St Louis, MO). Antibodies used in phosphoflow assay, including phosphorylated STAT3 (S727), SYK (Y525/526), PLCγ2 (Y759), AKT (S473), and ERK1/2 (Y204) were purchased from BD Biosciences (San Jose, CA).
# p-STAT3, p-AKT and p-ERK = test: phospho-flow assay in anti-BCR stimulated primary DLBCL cells; type: cell-based, human; details: 0.5 μM or 1 μM, 6 h, then IgM/IgG 15 min, six primary DLBCL samples
# Procedure: GCB cell lines OCI-LY1, OCI-LY4, OCI-LY8, OCI-LY18, SUDHL6 and VAL were cultured in Iscove's Modified Dulbecco's Medium (IMDM) supplemented with 20% Fetal Bovine Serum (FBS) and 100 μg/mL penicillin/streptomycin. ABC cell lines SUDHL2 and HBL1 were cultured in RPMI1640 supplemented with 20% FBS and 100 μg/mL penicillin/streptomycin. OCI-LY3 cells were grown in RPMI1640 supplemented with 20% FBS, 100 μg/ml penicillin/streptomycin and HEPES. ABC cell lines OCI-LY10 was cultured in Iscove's Modified Dulbecco's Medium (IMDM) supplemented with 20% human serum and 100 μg/mL penicillin/streptomycin. ABC cell line U2932 was cultured in high glucose RPMI1640 supplemented with 20% FBS, 100 μg/ml penicillin/streptomycin. All cells were maintained in a humidified 37°C/5% CO2 incubator. Frozen primary DLBCL cells were obtained from the tumor bank of the Department of Pathology at Weill Cornell Medical College after Institutional Review Board review and approval. All primary cells were thawed as previously described and cultured in above conditions at 37°C for 6 h in the presence or absence of cerdulatinib followed by BCR stimulations with 5 μg/mL of IgM and IgG. The clinical characteristics of these patients are listed in the Supplemental Table 1. Cerdulatinib was kindly provided by Portola Pharmaceuticals Inc. (South San Francisco, CA) and stored as 10 mM stock at −20°C. […]
# [3] = test system: BCR-stimulated DLBCL cells; test: BrdU S-phase analysis under BCR stimulation; type: cell-based; details: 3 μM, 48 h, anti-IgM and anti-IgG stimulation
# Procedure: as §2
# TYK2 = details: biochemical assay; cited from earlier work
# MST1 = details: biochemical assay; cited from earlier work
# AMPK = details: biochemical assay; cited from earlier work
# JAK2 = details: biochemical assay; cited from earlier work
# JAK3 = details: biochemical assay; cited from earlier work
# TBK1 = details: biochemical assay; cited from earlier work
# JAK1 = details: biochemical assay; cited from earlier work
# PAR1B-α = details: biochemical assay; cited from earlier work
# MST2 = details: biochemical assay; cited from earlier work
# JNK3 = details: biochemical assay; cited from earlier work
# SYK = details: biochemical assay; cited from earlier work
# ITK = details: biochemical assay; cited from earlier work
# LYN = details: cited from earlier work
# [4] = test system: rat model of autoimmune disease; details: cited from earlier work
# [5] = test system: splenomegaly induced by chronic BCR stimulation; details: mice; cited from earlier work
# [6] = test system: primary CLL cells with the BTK C481S mutation; details: cited from earlier work
smiles,measurement,setting,value
CCS(=O)(=O)N1CCN(c2ccc(Nc3ncc(C(N)=O)c(NC4CC4)n3)cc2)CC1 [cerdulatinib],IC50,[1],≤ 2000 nM
same,cell viability (annexin V-/7-AAD-),DLBCL cell lines,reduced
same,effect on S phase fraction,DHL2 cells,modest
same,S phase fraction,DHL6 cells,significant dose-dependent reduction
same,S phase fraction,HBL1 cells,significant dose-dependent reduction
same,S phase fraction,LY18 cells,significant dose-dependent reduction
same,effect on S phase fraction,LY3 cells,modest
same,phosphorylation of STAT3 at Y705,[2],completely blocked
same,"p-STAT3, p-AKT and p-ERK levels","p-STAT3, p-AKT and p-ERK",marked and simultaneous down-regulation
same,S-phase of BCR-stimulated tumor cells,[3],sensitive
same,IC50,TYK2,0.5 nM
same,IC50,MST1,4 nM
same,IC50,AMPK,6 nM
same,IC50,JAK2,6 nM
same,IC50,JAK3,8 nM
same,IC50,TBK1,10 nM
same,IC50,JAK1,12 nM
same,IC50,PAR1B-α,13 nM
same,IC50,MST2,15 nM
same,IC50,JNK3,18 nM
same,IC50,SYK,32 nM
same,IC50,ITK,194 nM
same,cellular activity against LYN,LYN,lacking cellular activity
same,inflammation,[4],reduces inflammation
same,splenomegaly,[5],alleviates splenomegaly
same,proliferation of ibrutinib-resistant cells,[6],completely blocking
